The target of assay [1] is JAK1 (Homo sapiens, UniProt P23458). Put plainly: SelectScreen kinase profiling, JAK1. The settings on record: read-out: Enzyme inhibitory activity IC50. The format is biochemical.
Assay [2] concerns the target MAP2K6 (MKK6) (Homo sapiens, UniProt P52564). Put plainly: SelectScreen kinase profiling, MAP2K6. The format is biochemical. To be noted: read-out: Enzyme inhibitory activity IC50.
Assay [3] addresses AKT2 (PKB beta) (Homo sapiens, UniProt P31751). Put plainly: SelectScreen kinase profiling, AKT2. The format is biochemical. The settings on record: read-out: Enzyme inhibitory activity IC50.
The target in assay [4] is PDGFRA (PDGFR alpha) (Homo sapiens, UniProt P16234). Put plainly: SelectScreen kinase profiling, PDGFRA. In kind it is biochemical. The settings on record: read-out: Enzyme inhibitory activity IC50.
Assay [5] has as its target T1, Recombinant Human STAT3 protein (SH2 domain) (Homo sapiens, UniProt P40763).
T1 construct: purchased Abcam ab43618
Put plainly: Fluorescence Polarization (FP) competition assay, STAT3 / GpYLPQTV-NH2 peptide. The format is binding. The procedure: The FP assay was conducted as described by Zhao et al. (J Biol Chem. 2010; 285: 35855-65). The labeled phosphopeptide, 5-FLU-G(P-TYR)LPQTV-NH2 was synthesized by ProImmune (London, UK) with over 95% purity as probe. The Recombinant Human STAT3 protein was purchased from Abcam (ab43618). For saturation curves, various concentration of peptide probe (0-100 nM) and STAT3 protein ([…]) were incubated for 30 min at RT in the buffer (50 mm NaCl, 10 mm HEPES, 1 mm EDTA, 0.1% Nonidet P-40). To obtain the inhibitory effect, drugs (0-1000 μM) and 150 nM human STAT3 were incubated at 37° C. for 1 hour prior to co-incubation with 10 nM of labeled LPQTV peptide at RT for 30 min. […] The fluorescence polarization was then analyzed by the BioTek Synergy™ Neo2 Multi-Mode Microplate Reader (BioTek Instruments, Winooski, Vt., USA). Ki=IC50/(([L])/Kd)+1).
Strategies to target STAT3 SH2 have been pursued recently. These small molecule inhibitors are designed to bind to a site resident in the STAT3 SH2 domain by competing with the p-Tyr705.
As STAT3 may be recruited to gp130 within phosphotyrosine residues, the competitive FP assay was utilized to identify whether 323-1 and 323-2 target STAT3 SH2 domain.
The control was set as 1% DMSO. Data are representative of 2 independent experiments.
A general note: Polarisation of emitted light reports the rotation of a fluorescent probe.

Assay [6] addresses SRC (Homo sapiens, UniProt P12931). Put plainly: SelectScreen kinase profiling, SRC. To be noted: read-out: Enzyme inhibitory activity IC50. The format is biochemical.
For assay [7], the target named is MAPK3 (ERK1) (Homo sapiens, UniProt P27361). Put plainly: SelectScreen kinase profiling, MAPK3. The format is biochemical. To be noted: read-out: Enzyme inhibitory activity IC50.
The subject of assay [8] is LPS-induced IL-10 and IL-12p70 secretion in dendritic cells. Put plainly: ELISA of secreted IL-10 and IL-12p70 in LPS-stimulated dendritic cells. The format is cell-based, human. To be noted: 24 hrs. The procedure: Low platelet peripheral blood mononuclear cells (PBMCs) were isolated from peripheral blood of healthy donors by Ficoll-Paque density centrifugation. Monocytes were derived from the above PBMCs by immunomagnetic selection with CD14+ microbeads (Pan Monocyte Isolation Kit from Miltenyi Biotec) and seeded at s 0.5×10^6 monocytes/ml in CellGro medium supplemented with GM-CSF (100 ng/ml) and IL-4 (20 ng/ml) to obtain immature dendritic cells (iDCs). Cytokines were replenished after 72 hrs and 24 hrs after incubation, iDCs were stimulated with 30 ng/ml LPS to obtain mature dendritic cells (moDCs). Test compounds were added into the wells 1 hr prior to the LPS treatment and co-incubated with LPS for another 23 hrs. Supernatant was collected for the detection of secreted IL-10 and IL-12p70 using a standard ELISA kit and cells were collected and markers identified by flow cytometry.
The effects of compounds 323-1 and 323-2 and various controls on the LPS-induced expression of cytokines IL-10, IL-12p70, co-stimulatory molecules and maturation markers (CD80, CD83, CD86, HLA-DR, CCR7) and programmed death-ligand 1 (PD-L1) and programmed death-ligand 2 (PD-L2) were determined.
Background: An ELISA detects its analyte on a solid surface through an enzyme-linked reagent.

The subject of assay [9] is phosphorylated STAT3 (Tyr705) over pSTAT1 (S727). Put plainly: Western blot, pSTAT3 (Tyr705) and pSTAT1 (S727) in DU145 cells. In kind it is cell-based, human. To be noted: 24 hrs.
In assay [10] the test system is PC3, 22Rv1, LNCaP, EPT3-M1-STAT3-GFP cells. Put plainly: MTS cell proliferation assay. In kind it is cell-based, human. The settings on record: FIGS. 1-4. The procedure: PC3, 22Rv1, LNCaP, EPT3-M1-STAT3 cells were seeded in 96-well plates for 24 hrs followed by treatment with different doses of 323-1 or 323-2. MTS assay was done after 3 days by adding 10 μl/well CellTiter 96@ AQueous One Solution Reagent (Promega, Madison, Wis., USA) for 4 hrs and the absorbance at 490 nm recorded using a Biotek machine.
To obtain the results shown in FIGS. 1-4, different cell lines were treated with indicated doses of compounds 323-1 and 323-2 for 72 hrs. All data are represented as the average±s.e.m (n=3). Significance was verified by using unpaired two-tailed Student's t-test. *p s 0.05 The total synthesis of compounds 323-1 and 323-2 was conducted as previously reported by Zhang et al. (Journal of the American Chemical Society. 2017; 139: 5558-67). The chemical structures of compounds 323-1 and 323-2 were validated by ^1H NMR, ^13C NMR.

Assay [11] deals with STAT3 activity. Put plainly: STAT3 luciferase reporter assay in HEK293T cells with IL-6. The settings on record: 20 ng/ml IL-6, 24 hrs, compared with cryptotanshinone. In kind it is cell-based, human. The procedure: Luciferase activity was measured by the Dual Luciferase Assay Kit (Promega) using a Luminescence Microplate Reader (Biotek). Values were normalized to Renilla luciferase activity of DMSO vehicle.
All data are represented as the average±s.e.m (n=3). Significance was verified by using unpaired two-tailed Student's t-test. *p s 0.05.
For orientation: A reporter such as luciferase makes a cellular process visible.

Where [12] appears, read: 10 nM peptide, 150 nM human STAT3 (FIG. 20), read-out: Ki, disruption of binding of STAT3 to phosphotyrosine peptide GpYLPQTV.
The mark [13] stands for this setting: background (autofluorescence) subtracted (FIG. 33), read-out: Ki, protein-ligand interaction after background subtraction.

Like-named read-outs stand apart in the source and are kept apart here.

T1 sequence (P40763 whole entry, the tested form may be a part): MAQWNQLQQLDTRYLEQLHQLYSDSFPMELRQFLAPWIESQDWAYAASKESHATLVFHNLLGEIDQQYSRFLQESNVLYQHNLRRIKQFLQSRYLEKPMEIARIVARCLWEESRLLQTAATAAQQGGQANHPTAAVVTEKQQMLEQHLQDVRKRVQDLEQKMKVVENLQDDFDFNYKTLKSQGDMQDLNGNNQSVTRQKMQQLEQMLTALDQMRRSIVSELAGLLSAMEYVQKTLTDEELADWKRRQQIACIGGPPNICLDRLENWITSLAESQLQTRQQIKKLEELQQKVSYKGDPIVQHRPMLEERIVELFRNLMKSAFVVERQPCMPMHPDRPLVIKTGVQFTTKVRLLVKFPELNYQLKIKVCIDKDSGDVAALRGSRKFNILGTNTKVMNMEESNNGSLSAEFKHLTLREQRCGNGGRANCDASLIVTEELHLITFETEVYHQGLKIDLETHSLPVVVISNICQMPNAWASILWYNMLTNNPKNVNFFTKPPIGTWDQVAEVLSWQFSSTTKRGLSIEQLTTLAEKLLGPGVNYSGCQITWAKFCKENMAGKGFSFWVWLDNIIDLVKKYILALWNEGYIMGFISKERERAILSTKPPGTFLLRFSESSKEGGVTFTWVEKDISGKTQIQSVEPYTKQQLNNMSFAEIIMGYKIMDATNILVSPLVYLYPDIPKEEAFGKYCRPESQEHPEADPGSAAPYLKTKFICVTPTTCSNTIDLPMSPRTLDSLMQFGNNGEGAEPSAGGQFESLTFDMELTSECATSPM
Chain of PDGFRA (PDGFR alpha) (P16234 24-1089): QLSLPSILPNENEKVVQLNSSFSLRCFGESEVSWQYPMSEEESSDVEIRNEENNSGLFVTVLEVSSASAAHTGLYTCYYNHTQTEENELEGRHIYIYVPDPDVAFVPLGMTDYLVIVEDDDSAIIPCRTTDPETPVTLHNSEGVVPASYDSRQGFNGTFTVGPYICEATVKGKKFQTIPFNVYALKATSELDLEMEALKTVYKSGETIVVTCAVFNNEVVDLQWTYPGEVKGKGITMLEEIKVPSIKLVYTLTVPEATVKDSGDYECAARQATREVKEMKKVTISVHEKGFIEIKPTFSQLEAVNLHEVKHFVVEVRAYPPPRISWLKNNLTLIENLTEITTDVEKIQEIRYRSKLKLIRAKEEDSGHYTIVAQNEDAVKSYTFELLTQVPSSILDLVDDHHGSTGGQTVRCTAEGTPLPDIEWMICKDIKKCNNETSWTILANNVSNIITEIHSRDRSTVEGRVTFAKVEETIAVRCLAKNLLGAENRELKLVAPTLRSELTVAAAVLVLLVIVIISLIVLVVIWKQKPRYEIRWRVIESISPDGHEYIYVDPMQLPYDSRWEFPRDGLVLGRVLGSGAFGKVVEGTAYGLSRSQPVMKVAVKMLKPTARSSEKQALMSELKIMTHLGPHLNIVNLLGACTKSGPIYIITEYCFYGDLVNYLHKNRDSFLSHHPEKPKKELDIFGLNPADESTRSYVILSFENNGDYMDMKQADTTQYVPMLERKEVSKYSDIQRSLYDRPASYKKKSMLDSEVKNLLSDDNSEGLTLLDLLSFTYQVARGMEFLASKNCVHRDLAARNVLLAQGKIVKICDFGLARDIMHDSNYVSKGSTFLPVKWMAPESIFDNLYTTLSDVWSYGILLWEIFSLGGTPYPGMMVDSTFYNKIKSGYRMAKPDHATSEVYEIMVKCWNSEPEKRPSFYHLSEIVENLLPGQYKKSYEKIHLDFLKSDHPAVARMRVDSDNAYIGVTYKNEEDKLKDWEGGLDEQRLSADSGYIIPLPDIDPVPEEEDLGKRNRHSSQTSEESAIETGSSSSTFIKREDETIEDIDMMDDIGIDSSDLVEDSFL
Chain of JAK1 (P23458 whole entry): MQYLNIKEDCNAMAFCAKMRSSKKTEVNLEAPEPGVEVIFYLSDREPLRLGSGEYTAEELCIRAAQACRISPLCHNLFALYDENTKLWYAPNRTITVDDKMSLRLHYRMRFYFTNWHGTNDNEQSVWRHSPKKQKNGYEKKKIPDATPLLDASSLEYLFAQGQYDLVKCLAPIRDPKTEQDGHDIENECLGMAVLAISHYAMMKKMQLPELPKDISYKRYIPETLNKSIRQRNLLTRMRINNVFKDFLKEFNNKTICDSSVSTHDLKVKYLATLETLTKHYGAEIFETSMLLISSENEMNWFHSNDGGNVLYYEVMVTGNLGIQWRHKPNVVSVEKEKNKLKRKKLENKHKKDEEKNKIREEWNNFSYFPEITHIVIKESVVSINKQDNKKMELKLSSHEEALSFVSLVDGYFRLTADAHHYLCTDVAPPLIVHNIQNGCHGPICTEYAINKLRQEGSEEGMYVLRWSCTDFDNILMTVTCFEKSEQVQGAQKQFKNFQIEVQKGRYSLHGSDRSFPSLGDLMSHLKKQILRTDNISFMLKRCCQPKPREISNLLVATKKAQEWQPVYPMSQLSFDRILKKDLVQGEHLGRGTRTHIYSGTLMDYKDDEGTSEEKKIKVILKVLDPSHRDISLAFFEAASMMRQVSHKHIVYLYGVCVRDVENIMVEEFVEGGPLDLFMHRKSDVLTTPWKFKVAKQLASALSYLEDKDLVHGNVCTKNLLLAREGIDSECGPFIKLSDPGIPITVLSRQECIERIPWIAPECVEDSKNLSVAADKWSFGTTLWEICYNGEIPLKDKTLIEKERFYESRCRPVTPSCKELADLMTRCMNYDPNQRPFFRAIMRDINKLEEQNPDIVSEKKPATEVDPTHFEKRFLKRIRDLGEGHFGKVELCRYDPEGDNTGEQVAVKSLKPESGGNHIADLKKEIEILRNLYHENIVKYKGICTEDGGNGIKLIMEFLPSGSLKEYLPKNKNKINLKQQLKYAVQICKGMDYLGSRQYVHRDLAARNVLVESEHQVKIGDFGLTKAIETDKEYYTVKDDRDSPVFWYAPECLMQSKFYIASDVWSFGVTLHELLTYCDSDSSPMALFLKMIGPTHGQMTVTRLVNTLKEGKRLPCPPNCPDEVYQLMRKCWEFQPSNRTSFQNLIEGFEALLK
Chain of SRC (P12931 whole entry): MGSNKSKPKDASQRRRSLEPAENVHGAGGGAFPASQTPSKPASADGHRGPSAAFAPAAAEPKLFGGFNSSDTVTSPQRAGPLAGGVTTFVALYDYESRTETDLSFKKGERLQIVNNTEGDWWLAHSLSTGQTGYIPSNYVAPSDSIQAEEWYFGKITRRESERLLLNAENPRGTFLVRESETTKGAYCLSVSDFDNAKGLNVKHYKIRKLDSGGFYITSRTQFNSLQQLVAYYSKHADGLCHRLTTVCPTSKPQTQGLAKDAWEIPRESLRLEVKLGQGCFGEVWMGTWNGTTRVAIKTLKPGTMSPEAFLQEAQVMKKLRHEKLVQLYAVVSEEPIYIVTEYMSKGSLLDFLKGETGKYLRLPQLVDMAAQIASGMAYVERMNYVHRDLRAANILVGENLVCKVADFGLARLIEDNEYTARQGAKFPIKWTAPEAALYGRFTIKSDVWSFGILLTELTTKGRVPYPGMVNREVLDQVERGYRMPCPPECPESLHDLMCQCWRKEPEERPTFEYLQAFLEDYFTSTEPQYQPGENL
Chain of MAP2K6 (MKK6) (P52564 whole entry): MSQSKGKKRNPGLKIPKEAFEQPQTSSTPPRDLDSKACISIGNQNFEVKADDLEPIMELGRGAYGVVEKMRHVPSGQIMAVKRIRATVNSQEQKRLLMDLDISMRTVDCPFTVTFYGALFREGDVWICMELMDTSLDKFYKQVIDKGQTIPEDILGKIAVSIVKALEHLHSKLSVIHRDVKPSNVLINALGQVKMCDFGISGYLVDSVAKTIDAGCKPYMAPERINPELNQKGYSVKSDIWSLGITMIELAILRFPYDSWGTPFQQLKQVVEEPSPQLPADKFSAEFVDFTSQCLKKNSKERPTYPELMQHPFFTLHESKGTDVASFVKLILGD
Chain of MAPK3 (ERK1) (P27361 whole entry): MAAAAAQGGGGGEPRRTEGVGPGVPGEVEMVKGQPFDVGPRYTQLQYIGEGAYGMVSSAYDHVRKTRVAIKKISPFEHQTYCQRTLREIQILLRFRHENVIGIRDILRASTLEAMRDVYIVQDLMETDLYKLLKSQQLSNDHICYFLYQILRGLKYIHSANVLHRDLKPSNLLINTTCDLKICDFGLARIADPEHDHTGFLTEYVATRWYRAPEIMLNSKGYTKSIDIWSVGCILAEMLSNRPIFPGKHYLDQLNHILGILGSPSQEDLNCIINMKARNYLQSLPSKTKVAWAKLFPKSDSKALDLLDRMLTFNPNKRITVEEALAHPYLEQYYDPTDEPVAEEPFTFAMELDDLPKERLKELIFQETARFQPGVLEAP
Chain of AKT2 (PKB beta) (P31751 whole entry): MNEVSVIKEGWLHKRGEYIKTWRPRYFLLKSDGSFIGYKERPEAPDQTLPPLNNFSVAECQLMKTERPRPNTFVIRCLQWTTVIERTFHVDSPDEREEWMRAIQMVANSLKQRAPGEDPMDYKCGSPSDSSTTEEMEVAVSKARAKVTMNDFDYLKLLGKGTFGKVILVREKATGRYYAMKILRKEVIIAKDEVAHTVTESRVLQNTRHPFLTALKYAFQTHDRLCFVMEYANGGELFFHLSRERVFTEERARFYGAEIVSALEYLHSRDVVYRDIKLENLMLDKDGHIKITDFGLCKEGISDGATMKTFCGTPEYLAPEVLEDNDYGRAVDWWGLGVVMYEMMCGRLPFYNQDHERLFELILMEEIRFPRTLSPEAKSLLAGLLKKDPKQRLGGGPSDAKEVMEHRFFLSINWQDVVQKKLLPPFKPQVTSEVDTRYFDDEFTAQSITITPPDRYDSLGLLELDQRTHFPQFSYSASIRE

In general, IC50 refers to the concentration at which inhibition is half-maximal. By Ki is commonly meant a measure of affinity in units of concentration, obtained from inhibition or displacement. As for `C[C@@H]1CCC(c2cc3c4c(cncc4c2)[C@H](C)C3)=C1C=O` [323-1, (15R,2R)-Delavatine A], the IC50 in assay [1], in assay [2], in assay [3], in assay [4], in assay [6] and in assay [7] was over 20 µM throughout. In addition, the inhibition constant Ki in [5] (setting [12]) is about 94 µM; in assay [5] (setting [13]), 94 µM.
For `C[C@@H]1CCC(c2cc3c4c(cncc4c2)[C@@H](C)C3)=C1C=O` [323-2, (15S,2R)-Delavatine A], the “Secretion of IL-10 and IL-12p70” value in assay [8] was “significantly reduced”. Moreover, the IC50 in [1], in assay [2], in [3], in [4], in [6] and in assay [7] was over 20 µM throughout. For the same compound, the Ki in assay [5] (setting [12]) is about 75 µM; in assay [5] (setting [13]), 75 µM. Besides, the “Potency to disrupt STAT3/GpYLPQTV relative to S3I-201” value in assay [5] (higher than S3I-201) is listed as “around 5 fold”. Moreover, in assay [9], the “Expression of phosphorylated STAT3 at Tyr705 compared with S3I-201” value is “better effect than S3I-201”. In assay [9], the “Selectivity, phosphorylated STAT3 (Tyr705) over pSTAT1 (S727)” value was “selective inhibitory effect”. Moreover, the “Inhibition of proliferation of tumor-initiating and other tumor cells” value in [10] was “efficiently inhibit the proliferation”. For the same compound, the “Inhibitory effect on STAT3 activation (luciferase reporter)” value in assay [11] is reported as “stronger inhibitory effect on STAT3 activation than cryptotanshinone”.

The values above are taken from US20230286919A1, “ISOQUINOLINE DERIVATIVES FOR USE IN THERAPY” (Vestlandets Innovasjonsselskap AS, priority 2020, published 2023).
